How the values were obtained:
Carboplatin = compound: C1CC(C1)(C(=O)[O-])C(=O)[O-].N.N.[Pt+2] [Carboplatin]; conditions: max 10 µM
Summary of the method: (§1)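 Cancer cell lines were dosed for 72 hours (final DMSO typically 0.2%) after 24 hours at 37°C and 5% CO2 in 1536-well plates containing 7.5 μl DMEM/F12 or RPMI with 10% FBS. Viability came from CellTiter-Glo 2.0 luminescence, scaled between blank-well and DMSO-well means, and dose responses were fitted to a two-parameter logistic curve with a non-linear mixed effects model. The single-agent IC50 was obtained from this fit.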

AZD5363 = compound: C1CN(CCC1(C(=O)N[C@@H](CCO)C2=CC=C(C=C2)Cl)N)C3=NC=NC4=C3C=CN4 [AZD5363]; conditions: max 10 µM
Summary of the method: as §1

AZD1775 = compound: C=CCn1c(=O)c2cnc(Nc3ccc(N4CCN(C)CC4)cc3)nc2n1-c1cccc(C(C)(C)O)n1 [AZD1775]; conditions: max 3 µM
Summary of the method: as §1

Trametinib = compound: CC(=O)Nc1cccc(-n2c(=O)n(C3CC3)c(=O)c3c(Nc4ccc(I)cc4F)n(C)c(=O)c(C)c32)c1 [Trametinib]; conditions: max 1 µM
Summary of the method: as §1

Paclitaxel = compound: CC(=O)O[C@H]1C(=O)[C@@]2(C)[C@H]([C@H](OC(=O)c3ccccc3)[C@]3(O)C[C@H](OC(=O)[C@H](O)[C@@H](NC(=O)c4ccccc4)c4ccccc4)C(C)=C1C3(C)C)[C@]1(OC(C)=O)CO[C@@H]1C[C@@H]2O [Paclitaxel]; conditions: max 3 µM
Summary of the method: as §1

Palbociclib = compound: CC(=O)c1c(C)c2cnc(Nc3ccc(N4CCNCC4)cn3)nc2n(C2CCCC2)c1=O [Palbociclib]; conditions: max 10 µM
Summary of the method: as §1

AZD1390 = compound: CC(C)n1c(=O)n(C)c2cnc3cc(F)c(-c4ccc(OCCCN5CCCCC5)nc4)cc3c21 [AZD1390]; conditions: max 0.3 µM
Summary of the method: as §1

Venetoclax = compound: CC1(C)CCC(CN2CCN(c3ccc(C(=O)NS(=O)(=O)c4ccc(NCC5CCOCC5)c([N+](=O)[O-])c4)c(Oc4cnc5[nH]ccc5c4)c3)CC2)=C(c2ccc(Cl)cc2)C1 [Venetoclax]; conditions: max 1 µM
Summary of the method: as §1

Dasatinib = compound: CC1=C(C(=CC=C1)Cl)NC(=O)C2=CN=C(S2)NC3=CC(=NC(=N3)C)N4CCN(CC4)CCO [Dasatinib]; conditions: max 2 µM
Summary of the method: as §1

SG3199 = compound: CC1=CN2[C@@H](C1)C=NC3=CC(=C(C=C3C2=O)OC)OCCCCCOC4=C(C=C5C(=C4)N=C[C@@H]6CC(=CN6C5=O)C)OC [SG3199]; conditions: max 0.001 µM
Summary of the method: as §1

AZD2811 = compound: CCN(CCO)CCCOc1ccc2c(Nc3cc(CC(=O)Nc4cccc(F)c4)[nH]n3)ncnc2c1 [AZD2811]; conditions: max 1 µM
Summary of the method: as §1

SN-38 = compound: CCc1c2c(nc3ccc(O)cc13)-c1cc3c(c(=O)n1C2)COC(=O)[C@]3(O)CC [SN-38]; conditions: max 0.3 µM
Summary of the method: as §1

AZD0156 = compound: CN(C)CCCOc1ccc(-c2ccc3ncc4c(c3c2)n(C2CCOCC2)c(=O)n4C)cn1 [AZD0156]; conditions: max 3 µM
Summary of the method: as §1

AZD4320 = compound: CN(CC[C@H](CSC1=CC=CC=C1)NC2=C(C=C(C=C2)S(=O)(=O)NC(=O)C3=CC=C(C=C3)N4CCC(CC4)[C@H](C5=CC=CC=C5C6=CC=C(C=C6)Cl)O)S(=O)(=O)C(F)(F)F)CCO [AZD4320]; conditions: max 1 µM
Summary of the method: as §1

Alisertib = compound: COc1cc(Nc2ncc3c(n2)-c2ccc(Cl)cc2C(c2c(F)cccc2OC)=NC3)ccc1C(=O)O [Alisertib]; conditions: max 10 µM
Summary of the method: as §1

Etoposide = compound: COc1cc([C@@H]2c3cc4c(cc3[C@@H](O[C@@H]3O[C@@H]5CO[C@@H](C)O[C@H]5[C@H](O)[C@H]3O)[C@H]3COC(=O)[C@H]23)OCO4)cc(OC)c1O [Etoposide]; conditions: max 10 µM
Summary of the method: as §1

Gefitinib = compound: COc1cc2ncnc(Nc3ccc(F)c(Cl)c3)c2cc1OCCCN1CCOCC1 [Gefitinib]; conditions: max 10 µM
Summary of the method: as §1

Prexasertib = compound: COc1cccc(OCCCN)c1-c1cc(Nc2cnc(C#N)cn2)n[nH]1 [Prexasertib]; conditions: max 1 µM
Summary of the method: as §1

Doxorubicin = compound: COc1cccc2c1C(=O)c1c(O)c3c(c(O)c1C2=O)C[C@@](O)(C(=O)CO)C[C@@H]3O[C@H]1C[C@H](N)[C@H](O)[C@H](C)O1 [Doxorubicin]; conditions: max 1 µM
Summary of the method: as §1

AZD5153 = compound: COc1nnc2ccc(N3CCC(c4ccc(OCCN5CCN(C)C(=O)[C@H]5C)cc4)CC3)nn12 [AZD5153]; conditions: max 1 µM
Summary of the method: as §1

Lapatinib = compound: CS(=O)(=O)CCNCc1ccc(-c2ccc3ncnc(Nc4ccc(OCc5cccc(F)c5)c(Cl)c4)c3c2)o1 [Lapatinib]; conditions: max 10 µM
Summary of the method: as §1

AZD8186 = compound: C[C@@H](Nc1cc(F)cc(F)c1)c1cc(C(=O)N(C)C)cc2c(=O)cc(N3CCOCC3)oc12 [AZD8186]; conditions: max 10 µM
Summary of the method: as §1

Crizotinib = compound: C[C@@H](Oc1cc(-c2cnn(C3CCNCC3)c2)cnc1N)c1c(Cl)ccc(F)c1Cl [Crizotinib]; conditions: max 10 µM
Summary of the method: as §1

Savolitinib = compound: C[C@@H](c1ccc2nccn2c1)n1nnc2ncc(-c3cnn(C)c3)nc21 [Savolitinib]; conditions: max 1 µM
Summary of the method: as §1

AZD6738 = compound: C[C@@H]1COCCN1C2=NC(=NC(=C2)C3(CC3)[S@](=N)(=O)C)C4=C5C=CNC5=NC=C4 [AZD6738]; conditions: max 10 µM
Summary of the method: as §1

AZD5991 = compound: Cc1c2c(nn1C)CSCc1cc(n(C)n1)CSc1cc(c3ccccc3c1)OCCCc1c(C(=O)O)n(C)c3c-2c(Cl)ccc13 [AZD5991]; conditions: max 1 µM
Summary of the method: as §1

AZD7648 = compound: Cc1cc2ncnn2cc1Nc1ncc2c(n1)n(C1CCOCC1)c(=O)n2C [AZD7648]; conditions: max 10 µM
Summary of the method: as §1

Taselisib = compound: Cc1nc(-c2cn3c(n2)-c2ccc(-c4cnn(C(C)(C)C(N)=O)c4)cc2OCC3)n(C(C)C)n1 [Taselisib]; conditions: max 10 µM
Summary of the method: as §1

Selumetinib = compound: Cn1cnc2c(F)c(Nc3ccc(Br)cc3Cl)c(C(=O)NOCCO)cc21 [Selumetinib]; conditions: max 10 µM
Summary of the method: as §1

SRA737 = compound: N#Cc1cnc(Nc2cc(NC[C@H]3CNCCO3)c(C(F)(F)F)cn2)cn1 [SRA737]; conditions: max 10 µM
Summary of the method: as §1

MK-2206 = compound: NC1(c2ccc(-c3nc4ccn5c(=O)[nH]nc5c4cc3-c3ccccc3)cc2)CCC1 [MK-2206]; conditions: max 10 µM
Summary of the method: as §1

Gemcitabine = compound: Nc1ccn([C@@H]2O[C@H](CO)[C@@H](O)C2(F)F)c(=O)n1 [Gemcitabine]; conditions: max 0.3 µM
Summary of the method: as §1

[1] = compound: O=C(Nc1ccc2[nH]nc(-c3ccncc3)c2c1)[C@@H]1CCN(CC(=O)N2CCN(c3ccc(-c4ncccn4)cc3)CC2)C1; conditions: max 5 µM
Summary of the method: as §1

Olaparib = compound: O=C(c1cc(Cc2n[nH]c(=O)c3ccccc23)ccc1F)N1CCN(C(=O)C2CC2)CC1 [Olaparib]; conditions: max 10 µM
Summary of the method: as §1

5-Fluorouracil = compound: O=c1[nH]cc(F)c(=O)[nH]1 [5-Fluorouracil]; conditions: max 20 µM
Summary of the method: as §1

| Cell Line | IC50, cell viability 72 h (Carboplatin) [nM] | IC50, cell viability 72 h (AZD5363) [nM] | IC50, cell viability 72 h (AZD1775) [nM] | IC50, cell viability 72 h (Trametinib) [nM] | IC50, cell viability 72 h (Paclitaxel) [nM] | IC50, cell viability 72 h (Palbociclib) [nM] | IC50, cell viability 72 h (AZD1390) [nM] | IC50, cell viability 72 h (Venetoclax) [nM] | IC50, cell viability 72 h (Dasatinib) [nM] | IC50, cell viability 72 h (SG3199) [nM] | IC50, cell viability 72 h (AZD2811) [nM] | IC50, cell viability 72 h (SN-38) [nM] | IC50, cell viability 72 h (AZD0156) [nM] | IC50, cell viability 72 h (AZD4320) [nM] | IC50, cell viability 72 h (Alisertib) [nM] | IC50, cell viability 72 h (Etoposide) [nM] | IC50, cell viability 72 h (Gefitinib) [nM] | IC50, cell viability 72 h (Prexasertib) [nM] | IC50, cell viability 72 h (Doxorubicin) [nM] | IC50, cell viability 72 h (AZD5153) [nM] | IC50, cell viability 72 h (Lapatinib) [nM] | IC50, cell viability 72 h (AZD8186) [nM] | IC50, cell viability 72 h (Crizotinib) [nM] | IC50, cell viability 72 h (Savolitinib) [nM] | IC50, cell viability 72 h (AZD6738) [nM] | IC50, cell viability 72 h (AZD5991) [nM] | IC50, cell viability 72 h (AZD7648) [nM] | IC50, cell viability 72 h (Taselisib) [nM] | IC50, cell viability 72 h (Selumetinib) [nM] | IC50, cell viability 72 h (SRA737) [nM] | IC50, cell viability 72 h (MK-2206) [nM] | IC50, cell viability 72 h (Gemcitabine) [nM] | IC50, cell viability 72 h [1] [nM] | IC50, cell viability 72 h (Olaparib) [nM] | IC50, cell viability 72 h (5-Fluorouracil) [nM] |
| --- | --- | --- | --- | --- | --- | --- | --- | --- | --- | --- | --- | --- | --- | --- | --- | --- | --- | --- | --- | --- | --- | --- | --- | --- | --- | --- | --- | --- | --- | --- | --- | --- | --- | --- | --- |
| IST-MEL1 (Melanoma) | > 10000 | > 10000 | 1480 | 934 | 252 | > 10000 | > 300 | > 1000 | > 2000 | > 1 | > 1000 | 18.1 | > 3000 | > 1000 | > 10000 | 9750 | > 10000 | 39.6 | 677 | > 1000 | > 10000 | > 10000 | > 10000 | > 1000 | 5600 | > 1000 | > 10000 | > 10000 | > 10000 | > 10000 | > 10000 | 70.9 | > 5000 | > 10000 | > 20000 |
| KALS-1 (Glioblastoma) | > 10000 | > 10000 | 1190 | 260 | 17.1 | > 10000 | > 300 | > 1000 | 1160 | > 1 | > 1000 | 262 | > 3000 | > 1000 | > 10000 | > 10000 | > 10000 | 10.9 | > 1000 | 254 | > 10000 | > 10000 | > 10000 | > 1000 | 2390 | > 1000 | > 10000 | > 10000 | > 10000 | 2710 | > 10000 | 297 | 1270 | > 10000 | > 20000 |
| KP-4 (Pancreatic Carcinoma) | > 10000 | > 10000 | 1340 | > 1000 | 6.9 | > 10000 | > 300 | > 1000 | > 2000 | > 1 | > 1000 | 31.6 | > 3000 | > 1000 | 5350 | 1730 | > 10000 | > 1000 | > 1000 | 818 | > 10000 | > 10000 | 2720 | > 1000 | > 10000 | > 1000 | > 10000 | > 10000 | > 10000 | > 10000 | > 10000 | – | > 5000 | > 10000 | > 20000 |
